The source of these data is US10730849B2, “Benzo[b]thiophene compounds as STING agonists” (MERCK SHARP & DOHME CORP., priority 2016, dated 2020).

One test concerns the target full-length HAQ STING (Homo sapiens (Human), UniProt Q86WV6, G230A/H232R/R293Q/R71H). Kind of test: 3H-cGAMP filtration binding assay (HAQ STING). Conditions: competition with tritiated cGAMP, HAQ STING membrane. From the text: The ability of compounds to bind STING is quantified by the ability to compete with tritiated cGAMP ligand for human STING receptor membrane using a radioactive filter-binding assay. The binding assay employs STING receptor obtained from Hi-Five cell membranes overexpressing full-length HAQ STING prepared in-house and tritiated cGAMP ligand also purified in-house.
The ability of compounds to bind STING is quantified by their ability to compete with tritiated cGAMP ligand for human STING receptor membrane using a radioactive filter-binding assay. The binding assay employs STING receptor obtained from Trichoplusia ni cell membranes (T. ni; Expression Systems, cat #94-002F, www.exressionsystems.com) overexpressing full-length HAQ STING and tritiated cGAMP ligand.
The basic HAQ STING filtration assay protocol is as follows:
Compound and membrane then preincubated for 60 min at RT to allow compound binding to equilibrate. Following equilibration, 8 nM of [^3H]c-GAMP ligand was prepared by diluting into assay buffer, and 50 uL of this working stock was then manually added to each well of the assay plate. […] The filter plates were then dried at 55° C. for 30 min using a pressurized oven before 30 uL of ULTIMA GOLD F scintillate was added to each well. Tritium levels for each reaction well were then measured using a PerkinElmer TopCount plate reader.
(§1) After normalization to controls, the percent activity for each compound concentration was calculated by measuring the amount of remaining radioactivity. The plot of percent activity versus the log of compound concentration was fit with a 4-parameter dose response equation to calculate EC50 values.

The target of the next test is full-length WT STING (Homo sapiens (Human), UniProt Q86WV6, H232R). The test can be described thus: 3H-cGAMP filtration binding assay (WT STING).
From the text: The ability of compounds to bind STING is quantified by their ability to compete with tritiated cGAMP ligand for human STING receptor membrane using a radioactive filter-binding assay. The binding assay employs STING receptor obtained from Trichoplusia ni cell membranes (T. ni; Expression Systems, cat #94-002F, www.expressionsystems.com) overexpressing full-length WT STING and tritiated cGAMP ligand.
The basic WT STING filtration assay protocol is as follows:
The filter plates were then dried at 55° C. for 30 min using a pressurized VWR oven before 30 uL of ULTIMA GOLD F scintillate was added to each well. Tritium levels for each reaction well were then measured using a PerkinElmer TopCount plate reader.
as §1

For a further test, the system named is THP1 cells. The test can be described thus: IFN-β secretion in THP1 cell culture (5 h). The class given is cell-based, human. The settings on record: relative to 30 uM cGAMP. How it is done: The ability of compounds to stimulate the secretion of interferon-beta from THP1 cells was measured using a human IFN-3 AlphaLISA kit (Perkin Elmer, Cat. No. AL265F). The basic protocol is as follows:
The cell viability and count was ascertained using a Beckman Coulter V-Cell XR cell counter. The cells suspension was centrifuged at 200×g for 5 min at RT. Cells were resuspended to a density of 0.8×10^6/mL in 37° C. assay medium. Subsequent liquid transfers were performed using either a Matrix electronic multichannel pipette or an Agilent Bravo Automated Liquid Handling Platform.
The assay was started by dispensing 40 μL of the previously prepared cell suspension into the wells of the plate containing compounds. After 5 h incubation at 37° C., 5% CO2 in a humidified atmosphere, the plate of cells and compounds was centrifuged at 200×g for 5 min at RT. […] To these supernatant-containing wells was added 10 μL of 5× Anti-Analyte Acceptor beads ([…] of AlphaLISA HiBlock Buffer) and incubated for 30 min at RT while shaking on an orbital plate shaker. To each well was added 10 μL of 5× Biotinylated Antibody Anti-analyte (5 nM in AlphaLISA HiBlock Buffer) and incubated on an orbital plate shaker for 60 min at RT or overnight at 4° C. To each well was added 25 μL of 2× SA-Donor beads ([…] in AlphaLISA HiBlock Buffer) and incubated for 30-45 min at RT in the dark while shaking on an orbital plate shaker. The plate was then read on a Perkin Elmer Envision (λex=680 nm, […]). The percent effect of the AlphaLISA signal at each compound concentration was calculated based on 30 uM cGAMP positive controls and 0.3% DMSO negative controls. The plot of percent effect versus the log of compound concentration was fit with a 4-parameter concentration response equation to calculate EC50 values.
Compounds of the disclosure were evaluated for IFN-3 secretion in THP1 cell culture as described above.

Sequence of full-length WT STING (Q86WV6 other isoform, or with tags, fused parts or gaps H232R (already in the parent)): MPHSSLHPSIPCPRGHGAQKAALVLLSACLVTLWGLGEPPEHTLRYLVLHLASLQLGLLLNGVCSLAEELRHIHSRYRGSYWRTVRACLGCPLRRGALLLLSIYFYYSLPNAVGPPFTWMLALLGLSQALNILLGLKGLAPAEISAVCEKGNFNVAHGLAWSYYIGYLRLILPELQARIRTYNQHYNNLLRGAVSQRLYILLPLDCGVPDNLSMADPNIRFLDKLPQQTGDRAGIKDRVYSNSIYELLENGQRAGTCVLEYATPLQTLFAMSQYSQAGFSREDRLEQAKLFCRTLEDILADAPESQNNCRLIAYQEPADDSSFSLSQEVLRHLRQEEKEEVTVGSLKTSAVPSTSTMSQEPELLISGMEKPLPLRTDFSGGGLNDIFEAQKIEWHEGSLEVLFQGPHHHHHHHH
Sequence of full-length HAQ STING (Q86WV6 other isoform, or with tags, fused parts or gaps, stated change not applied): as the sequence (Q86WV6 other isoform, or with tags, fused parts or gaps H232R (already in the parent)) above, with R71H, G230A, R293Q counted along it

Take `COc1cc2cc(C(=O)C[C@H](C)C(=O)O)sc2cc1CCF` [Example 46, (2S)-4-[6-(2-fluoroethyl)-5-methoxy-1-benzothiophen-2-yl]-2-methyl-4-oxobutanoic acid]: the EC50 – broadly, the concentration at which the effect is half-maximal – at full-length HAQ STING turned out to be 7.45 µM. For the same compound, the inhibition (as a rule, the change of the read-out against control, counted positive when it falls) at 20 µM at full-length WT STING (WT STING, compound at 20 uM) was 24%. The “% Effect at 30 μM relative to 2’3’-cGAMP” value in the test on THP1 cells was 205%.
Consider `CCOC(=O)C(C)(O)CC(=O)c1cc2cc(OC)c(OC)cc2s1` (stereo not drawn) [Example 48, Ethyl 4-(5,6-dimethoxybenzo[b]thiophen-2-yl)-2-hydroxy-2-methyl-4-oxobutanoate], for which a half-maximal effect at full-length HAQ STING (EC50) was put at 19.2 µM. Also, the inhibition at 20 µM on full-length WT STING (WT STING, compound at 20 uM) was 23%. In the test with THP1 cells, the “% Effect at 30 μM relative to 2’3’-cGAMP” value is 71%.
On to `CCC(CC(=O)c1cc2c(F)c(OC)c(OC)cc2s1)C(=O)O` (stereo not drawn) [Example 50, 2-ethyl-4-(4-fluoro-5,6-dimethoxybenzo[b]thiophen-2-yl)-4-oxobutanoic acid], for which the EC50 on full-length HAQ STING came to 0.89 µM; on full-length WT STING (competition with tritiated cGAMP, WT STING membrane), 2.14 µM. The “% Effect at 30 μM relative to 2’3’-cGAMP” value in the test with THP1 cells worked out at 115%.
Regarding `COc1cc2sc(C(=O)[C@H]3C[C@H]3C(=O)O)cc2c(F)c1OC` [Example 51, (1R,2S)-2-(4-fluoro-5,6-dimethoxybenzo[b]thiophene-2-carbonyl)cyclopropane-1-carboxylic acid], at full-length HAQ STING, the half-maximal effective concentration (EC50) amounted to 17.8 µM. Moreover, the inhibition at 20 µM at full-length WT STING (WT STING, compound at 20 uM) was 3%. In addition, the “% Effect at 30 μM relative to 2’3’-cGAMP” value with THP1 cells is listed as 31%.
In turn, `COc1cc2sc(C(=O)[C@@H]3C[C@@H]3C(=O)O)cc2c(F)c1OC` [Example 52, (1S,2R)-2-(4-fluoro-5,6-dimethoxybenzo[b]thiophene-2-carbonyl)cyclopropane-1-carboxylic acid] displayed an EC50 on full-length HAQ STING of 0.599 µM. Besides, the inhibition at 20 µM on full-length WT STING (WT STING, compound at 20 uM) amounted to 101%. Besides, the “% Effect at 30 μM relative to 2’3’-cGAMP” value with THP1 cells is on record as 142%.
Turning to `COc1cc2cc(C(=O)CCC(=O)O)sc2cc1OC(F)F` [Example 53, 4-(6-(difluoromethoxy)-5-methoxybenzo[b]thiophen-2-yl)-4-oxobutanoic acid], at full-length HAQ STING, the EC50 stood at 13.7 µM. Further, the inhibition at 20 µM on full-length WT STING (WT STING, compound at 20 uM) stood at 7%. Further, the “% Effect at 30 μM relative to 2’3’-cGAMP” value in the test on THP1 cells is reported as 182%.
As to “(S)-4-(5,6-dimethylbenzo [b]thiophen-2-y1)- 2-methyl-4- oxobutanoic acid [Example 31]”, a half-maximal effect on full-length HAQ STING (EC50) was put at 5.94 µM. Besides, on full-length WT STING (WT STING, compound at 20 uM), the “% Inh @ 20 uM” value was determined as 10% Inh @ 20 μM. The “% Effect at 30 μM relative to 2’3’-cGAMP” value with THP1 cells is on record as 24%.
